Data reported in paper PMC12561453, “Synthesis and Structure–Activity Relationship Study of 2-(amino)quinazolin-4(3H)-one Derivatives as Potential Inhibitors of Methicillin-Resistant Staphylococcus aureus (MRSA)” (Antibiotics, 2025).
≈ marks a conversion by molar mass, not a printed value.

Legend:
S. aureus ATCC25923 = test: Broth microdilution dose-response, S. aureus ATCC25923; assay type: cell-based, Staphylococcus aureus; settings: for MIC50: Staphylococcus aureus, ATCC25923, methicillin-sensitive strain, OD600 after 18–24 h, read-out: ATCC25923 MIC50; for antibacterial activity (in words): ATCC25923
Text: (§1) The antistaphylococcal activities (MIC50) of the synthesized compounds were examined via a previously described broth microdilution method against two S. aureus strains: ATCC25923, a methicillin-sensitive reference strain, and JE2, a methicillin-resistant strain of the USA300 lineage (Figure 2, Table 1).
(§2) Staphylococcus aureus USA300, a methicillin-resistant strain, was obtained from the Nebraska Transposon Mutant Library. Staphylococcus aureus ATCC25923, a pan-drug-susceptible strain, was purchased from the American Type Culture Collection (ATCC) (Manassas, VA, USA). S. aureus strains were grown in Cation-Adjusted Mueller–Hinton broth (CAMHB) (Difco) at 37 °C. Bacterial strain stocks were stored in vials with 25% glycerol at −80 °C. For each experiment, overnight cultures were prepared by inoculating a frozen bacterial strain stock in 10 mL of CAMHB medium and incubating at 37 °C in a shaking incubator (180 rpm). For the preliminary screen and dose–response experiments, 100 µL of overnight culture was inoculated into 10 mL of fresh CAMHB and incubated for 3 h at 37 °C and 180 rpm.
(§3) Antibiotic susceptibility assay was tested according to modified Clinical and Laboratory Standards Institute (CLSI) laboratory guidelines for broth microdilution assays. S. aureus was cultured in CAMHB, and bacterial cells were prepared with an OD600 of 0.005. DRC plates were prepared by adding 40 µL of bacterial suspension to each well, where 10 µL of each compound had been dispensed for […] of two-fold serial dilutions starting at […]. After incubation of the plates at 37 °C for 18–24 h with 5% CO2, the growth of S. aureus was detected by measuring the OD600nm using an Ensight (Revvity) spectrometer (Revvity, Waltham, MA, USA).
(§4) Figure 2 In vitro antibacterial activities of 2-(amino)quinazolin-4(3H)-one derivatives. S. aureus ATCC25923 (blue) and USA300 JE (orange) strains were incubated with serial dilutions of 2-(amino)quinazolin-4(3H)-one derivatives (0.19–100 µM) for 18–24 h. The dose–responses were observed by measuring OD600nm. The plots were drawn from each group of strains with nonlinear curve fits.

S. aureus USA300 JE2 = test: Broth microdilution dose-response, S. aureus USA300 JE2 (MRSA); assay type: cell-based, Staphylococcus aureus; settings: for MIC50: Staphylococcus aureus, USA300, USA300 JE2, methicillin-resistant, OD600 after 18–24 h, read-out: USA300 MIC50; for antibacterial activity (in words): JE2
Text: as §1, §2, §3, §4

MIC50 (S. aureus ATCC25923) | MIC50 (S. aureus USA300 JE2) | Compound | antibacterial activity (in words) (S. aureus ATCC25923) | antibacterial activity (in words) (S. aureus USA300 JE2)
10.8 µM (≈ 4.05 µg/mL) | 6.9 µM (≈ 2.59 µg/mL) | O=c1[nH]c(Nc2cc(Cl)cc(Cl)c2)nc2c(Cl)c(Cl)ccc12 [6a, 7,8-Dichloro-2-((3,5-dichlorophenyl)amino)quinazolin-4(3H)-one] | – | –
> 100 µM | > 100 µM | COc1cc2nc(Nc3cc(Cl)cc(Cl)c3)[nH]c(=O)c2cc1OC [6c, 2-((3,5-Dichlorophenyl)amino)-6,7-dimethoxyquinazolin-4(3H)-one] | complete abolition of antibacterial activity | complete abolition of antibacterial activity
> 100 µM | > 100 µM | O=c1[nH]c(Nc2ccc(F)cc2F)nc2cc(Cl)ccc12 [6o, 7-Chloro-2-((2,4-difluorophenyl)amino)quinazolin-4(3H)-one] | complete loss of activity | complete loss of activity
> 100 µM | > 100 µM | O=c1[nH]c(Nc2ccccc2Cl)nc2cc(Cl)ccc12 [6t, 7-Chloro-2-((2-chlorophenyl)amino)quinazolin-4(3H)-one] | complete loss of activity | complete loss of activity
> 100 µM | > 100 µM | O=c1[nH]c(NCc2cc(F)cc(F)c2)nc2cc(Cl)ccc12 [6w, 7-Chloro-2-((3,5-difluorobenzyl)amino)quinazolin-4(3H)-one] | complete loss of activity | complete loss of activity
> 100 µM | > 100 µM | COc1ccc2c(=O)[nH]c(Nc3cc(Cl)cc(Cl)c3)nc2c1 [6d, 2-((3,5-Dichlorophenyl)amino)-7-methoxyquinazolin-4(3H)-one] | complete abolition of antibacterial activity | complete abolition of antibacterial activity
> 100 µM | > 100 µM | O=c1[nH]c(Nc2cc(Cl)cc(Cl)c2)nc2cc(N3CCOCC3)ccc12 [6b, 2-((3,5-Dichlorophenyl)amino)-7-morpholinoquinazolin-4(3H)-one] | complete abolition of antibacterial activity | complete abolition of antibacterial activity
3.9 µM (≈ 1.46 µg/mL) | 12.9 µM (≈ 4.84 µg/mL) | O=c1[nH]c(Nc2cc(Cl)cc(Cl)c2)nc2c(Cl)ccc(Cl)c12 [compound 1, 5,8-Dichloro-2-((3,5-dichlorophenyl)amino)quinazolin-4(3H)-one] | – | –
> 100 µM | > 100 µM | O=c1[nH]c(Nc2ccccc2)nc2cc(Cl)ccc12 [6m, 7-Chloro-2-(phenylamino)quinazolin-4(3H)-one] | complete loss of activity | complete loss of activity
35.5 µM (≈ 10.4 µg/mL) | 18.1 µM (≈ 5.28 µg/mL) | O=c1[nH]c(NCC2CCCCC2)nc2cc(Cl)ccc12 [6s, 7-Chloro-2-((cyclohexylmethyl)amino)quinazolin-4(3H)-one] | Decreased antibacterial activities | Decreased antibacterial activities
35.1 µM (≈ 10.6 µg/mL) | 24.9 µM (≈ 7.51 µg/mL) | COc1cccc(Nc2nc3cc(Cl)ccc3c(=O)[nH]2)c1 [6p, 7-Chloro-2-((3-methoxyphenyl)amino)quinazolin-4(3H)-one] | Decreased antibacterial activities | Decreased antibacterial activities
